Measured values as given in patent publication US20240316017A1, “NOVEL PYRIDINE DERIVATIVE COMPOUND AS RON INHIBITOR” (LG CHEM, LTD., priority 2021, published 2024).

How the values were obtained:
cMET = cMET (Homo sapiens, UniProt P08581); experiment: Evaluation of inhibitory activity against MET (TR-FRET kinase assay); type: biochemical; conditions: cMET protein, TK peptide substrate
Method: In addition, in order to measure the enzyme activity inhibition for cMET, the evaluation was performed in the same manner as the enzyme activity inhibition measurement experiment for RON.
(§1) Specifically, the compound was prepared to a concentration of 1 mM in 100% DMSO and was diluted 10 times in a stepwise manner through 3-fold dilution. The compound (2 ul) diluted in a stepwise manner was added to a 96-well-plate containing 48 ul of a 1× kinase reaction buffer (50 mM HEPES (pH 7.4), 0.05% BSA, 0.005% Tween-20, 1 mM DTT, 0.5 mM MnCl2, 20 mM MgCl2).
The cMET protein was diluted to a concentration of 263 nM in a cMET storage buffer (50 mM Tris-HCl (pH 7.5), 150 mM NaCl, 0.05% Brij35, 1 mM DTT, 10% Glycerol), and then diluted again to a concentration of 2 nM in a 1× kinase reaction buffer. As a substrate cocktail, a MET-specific substrate mixed solution (5 uM TK peptide, 10 mM ATP) was prepared at a concentration 2 times the final reaction concentration.
(§2) Thereafter, a 384-well-plate was prepared, and 2.5 μl of each of the diluted compounds of Examples was added to a corresponding well of experimental group wells, and 2.5 μl of a 4% DMSO solution was dispensed into high control wells and low control wells.
(§3) Thereafter, 2.5 μL of 2 nM cMET was dispensed into each of the high control wells and the experimental group wells, and 2.5 μL of the 1×kinase reaction buffer was added to the low control wells, and all the wells were centrifuged at room temperature for 40 seconds at 1,000 RPM, and then incubated at room temperature for 20-30 minutes. Then, 5 uL of the substrate cocktail (2×) was dispensed into each well, and all the wells were centrifuged at room temperature for 40 seconds at 1,000 RPM, and then incubated at room temperature for 60 minutes. Thereafter, 5 uL of 90 mM EDTA was added to each well to terminate the reaction, and all the wells were then incubated again at room temperature for 5 minutes. Thereafter, 5 uL of a 4× phosphotyrosine antibody (Perkin Elmer) containing europium was added to each well, and all the wells were then incubated at room temperature for 60 minutes. After the incubation, the 384-well-plate was read with the Vison plate reader. In this case, the excitation wavelength was 340 nm, and the emission wavelength was 620 nm and 665 nm. The IC50 value of each compound of Examples was derived using the GraphPd Prism7 program.

RON = RON (Homo sapiens, UniProt Q04912); experiment: Evaluation of inhibitory activity against RON (TR-FRET kinase assay); type: biochemical; conditions: RON protein, ULight-labeled Poly GT substrate
Chain of RON (Q04912 25-1400, species assumed): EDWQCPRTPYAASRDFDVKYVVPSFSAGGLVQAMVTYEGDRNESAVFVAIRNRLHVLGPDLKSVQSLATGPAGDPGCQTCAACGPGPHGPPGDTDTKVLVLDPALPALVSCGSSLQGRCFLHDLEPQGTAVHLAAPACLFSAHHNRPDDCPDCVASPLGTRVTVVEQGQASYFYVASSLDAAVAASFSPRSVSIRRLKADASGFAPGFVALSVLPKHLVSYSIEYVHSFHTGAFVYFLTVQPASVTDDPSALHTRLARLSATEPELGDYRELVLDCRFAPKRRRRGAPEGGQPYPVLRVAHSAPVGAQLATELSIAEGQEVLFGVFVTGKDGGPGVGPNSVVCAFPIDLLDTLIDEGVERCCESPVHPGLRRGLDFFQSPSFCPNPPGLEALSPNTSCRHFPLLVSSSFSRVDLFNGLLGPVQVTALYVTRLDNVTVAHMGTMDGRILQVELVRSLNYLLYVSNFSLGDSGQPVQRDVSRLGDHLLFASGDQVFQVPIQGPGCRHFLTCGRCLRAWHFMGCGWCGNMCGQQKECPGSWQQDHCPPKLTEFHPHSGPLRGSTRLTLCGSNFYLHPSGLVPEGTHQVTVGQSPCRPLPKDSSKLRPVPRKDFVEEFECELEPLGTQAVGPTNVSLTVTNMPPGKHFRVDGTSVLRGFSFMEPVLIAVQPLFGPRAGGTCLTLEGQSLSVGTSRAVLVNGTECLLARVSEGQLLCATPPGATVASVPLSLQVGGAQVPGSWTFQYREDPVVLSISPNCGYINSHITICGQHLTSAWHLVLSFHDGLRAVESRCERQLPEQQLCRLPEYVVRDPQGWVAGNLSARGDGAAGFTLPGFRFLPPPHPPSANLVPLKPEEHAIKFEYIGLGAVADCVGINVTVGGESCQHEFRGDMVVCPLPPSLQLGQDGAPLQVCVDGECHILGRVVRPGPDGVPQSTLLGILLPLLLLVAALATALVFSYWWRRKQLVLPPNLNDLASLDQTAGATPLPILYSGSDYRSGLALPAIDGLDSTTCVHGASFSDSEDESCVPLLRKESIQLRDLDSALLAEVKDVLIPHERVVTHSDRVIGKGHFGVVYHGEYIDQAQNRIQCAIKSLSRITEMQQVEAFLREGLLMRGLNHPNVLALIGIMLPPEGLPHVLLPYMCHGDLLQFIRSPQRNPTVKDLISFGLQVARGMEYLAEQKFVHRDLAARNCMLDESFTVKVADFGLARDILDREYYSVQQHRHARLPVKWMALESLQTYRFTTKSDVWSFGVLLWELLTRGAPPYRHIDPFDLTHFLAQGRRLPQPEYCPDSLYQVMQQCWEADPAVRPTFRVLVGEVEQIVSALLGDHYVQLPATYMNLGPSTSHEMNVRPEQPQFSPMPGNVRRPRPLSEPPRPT
Method: In order to measure the inhibitory activity of each of the compounds of Examples against RON, the IC50 of each of the compounds was measured using Time-resolved fluorescence energy transfer (TR-FRET).
as §1, with “7.4), 0.01%” for “7.4), 0.05% BSA, 0.005%”, “Tween-20, 5” for “Tween-20, 1”, “mM Na3VO4, 2 mM EGTA, 10” for “mM MnCl2, 20”
The RON protein was diluted to a concentration of 49.3 nM in a RON storage buffer (50 mM Tris-HCl (pH 7.5), 150 mM NaCl, 0.5 mM EDTA, 0.02% Triton X-100), and then diluted again to a concentration of 0.4 nM in a 1×kinase reaction buffer. As a substrate cocktail, a RON-specific substrate mixed solution (40 uM ULight-labeled Poly GT, 100 nM ATP) was prepared at a concentration 2 times the final reaction concentration.
as §2
as §3, with “of 0.4” for “of 2”, “nM RON” for “nM cMET”, “the 1× kinase” for “the 1×kinase”, “of 30” for “of 90”

Chain of cMET (P08581 25-1390): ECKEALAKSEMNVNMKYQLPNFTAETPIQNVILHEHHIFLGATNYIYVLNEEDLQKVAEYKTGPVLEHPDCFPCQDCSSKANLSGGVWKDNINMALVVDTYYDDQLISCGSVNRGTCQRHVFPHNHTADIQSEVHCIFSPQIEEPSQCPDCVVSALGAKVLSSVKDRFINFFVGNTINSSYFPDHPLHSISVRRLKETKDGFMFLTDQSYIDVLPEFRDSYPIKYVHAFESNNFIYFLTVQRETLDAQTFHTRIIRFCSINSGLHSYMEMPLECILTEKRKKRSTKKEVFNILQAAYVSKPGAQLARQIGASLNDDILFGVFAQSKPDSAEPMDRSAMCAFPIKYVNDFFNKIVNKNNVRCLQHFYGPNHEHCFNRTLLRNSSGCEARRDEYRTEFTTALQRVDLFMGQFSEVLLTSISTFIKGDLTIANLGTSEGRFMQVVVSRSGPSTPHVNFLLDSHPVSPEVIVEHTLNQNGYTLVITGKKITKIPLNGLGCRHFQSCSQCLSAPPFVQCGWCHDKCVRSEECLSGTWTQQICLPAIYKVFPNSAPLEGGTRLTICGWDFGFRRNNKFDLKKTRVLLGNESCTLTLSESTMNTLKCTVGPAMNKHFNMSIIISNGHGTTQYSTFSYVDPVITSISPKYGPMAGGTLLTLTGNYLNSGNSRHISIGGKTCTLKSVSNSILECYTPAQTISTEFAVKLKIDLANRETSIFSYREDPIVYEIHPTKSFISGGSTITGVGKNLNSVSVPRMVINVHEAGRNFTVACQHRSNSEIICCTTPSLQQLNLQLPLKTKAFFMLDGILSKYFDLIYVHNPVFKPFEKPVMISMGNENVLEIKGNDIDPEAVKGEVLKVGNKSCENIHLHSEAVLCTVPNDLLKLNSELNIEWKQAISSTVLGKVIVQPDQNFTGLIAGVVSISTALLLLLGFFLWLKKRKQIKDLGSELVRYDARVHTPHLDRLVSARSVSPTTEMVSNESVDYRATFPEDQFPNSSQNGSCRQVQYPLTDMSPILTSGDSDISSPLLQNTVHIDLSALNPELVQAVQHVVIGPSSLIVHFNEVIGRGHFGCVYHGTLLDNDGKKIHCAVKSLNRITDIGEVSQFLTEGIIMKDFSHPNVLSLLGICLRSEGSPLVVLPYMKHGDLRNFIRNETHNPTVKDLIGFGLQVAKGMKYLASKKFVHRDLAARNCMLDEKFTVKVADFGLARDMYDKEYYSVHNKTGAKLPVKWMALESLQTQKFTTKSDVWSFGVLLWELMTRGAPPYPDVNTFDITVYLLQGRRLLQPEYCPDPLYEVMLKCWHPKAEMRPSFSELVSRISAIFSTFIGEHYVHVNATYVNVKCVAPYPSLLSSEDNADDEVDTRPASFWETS

Row | IC50 (cMET) [nM] | IC50 (RON) [nM] | SMILES
1 | 500 to 5000 | < 50 | Nc1nccc(Oc2ccc(NC(=O)c3ncn(-c4ccccc4)c3C(F)(F)F)cc2F)c1I [Example 29, N-(4-((2-amino-3-iodopyridin-4-yl)oxy)-3-fluorophenyl)-1-phenyl-5-(trifluoromethyl)-1H-imidazole-4-carboxamide]
2 | > 5000 | 50 to 500 | Nc1cc(Oc2ccc(NC(=O)c3ncn(-c4ccccc4)c3C(F)(F)F)cc2F)ccn1 [Example 25]
3 | > 5000 | < 50 | Nc1nccc(Oc2ccc(NC(=O)c3cnn(-c4ccccc4)c3C(F)(F)F)cc2F)c1I [Example 43, N-(4-((2-amino-3-iodopyridin-4-yl)oxy)-3-fluorophenyl)-1-phenyl-5-(trifluoromethyl)-1H-pyrazole-4-carboxamide]
4 | > 5000 | 50 to 500 | Nc1nccc(Oc2ccc(NC(=O)c3onc(-c4ccccc4)c3C(F)(F)F)cc2F)c1Cl [Example 38, N-(4-((2-amino-3-chloropyridin-4-yl)oxy)-3-fluorophenyl)-3-phenyl-4-(trifluoromethyl)isoxazole-5-carboxamide]
5 | > 5000 | 50 to 500 | O=C(Nc1ccc(Oc2ccnc(NC(=O)C3CC3)c2Cl)c(F)c1)c1ncn(-c2ccccc2)c1C(F)(F)F [Example 23]
6 | > 5000 | > 5000 | O=C(Nc1ccc(Oc2ccnc(Cl)c2)c(F)c1)c1ncn(-c2ccccc2)c1C(F)(F)F [Example 24]
7 | > 5000 | 50 to 500 | Nc1nccc(Oc2ccc(NC(=O)c3cnn(-c4ccccc4)c3C(F)F)cc2F)c1Cl [Example 6, N-(4-((2-amino-3-chloropyridin-4-yl)oxy)-3-fluorophenyl)-5-(difluoromethyl)-1-phenyl-1H-pyrazole-4-carboxamide]
8 | 500 to 5000 | 50 to 500 | Nc1ncnc(Oc2ccc(NC(=O)c3cnn(-c4ccccc4F)c3C(F)(F)F)cc2F)c1Cl [Example 52, N-[4-(6-amino-5-chloro-pyrimidin-4-yl)oxy-3-fluorophenyl]-1-(2-fluorophenyl)-5-(trifluoromethyl)pyrazole-4-carboxamide]
9 | 500 to 5000 | < 50 | Nc1nccc(Oc2ccc(NC(=O)c3cnn(-c4c(F)cccc4F)c3C(F)(F)F)cc2F)c1Cl [Example 37, N-(4-((2-amino-3-chloropyridin-4-yl)oxy)-3-fluorophenyl)-1-(2,6-difluorophenyl)-5-(trifluoromethyl)-1H-pyrazole-4-carboxamide]
10 | > 5000 | > 5000 | Nc1nccc(Oc2ccc(NC(=O)c3cn(-c4ccccc4)nn3)cc2F)c1Cl [Example 40, N-(4-((2-amino-3-chloropyridin-4-yl)oxy)-3-fluorophenyl)-1-phenyl-1H-1,2,3-triazole-4-carboxamide]
11 | > 5000 | 50 to 500 | O=C(Nc1ccc(Oc2ccnc(NC(=O)C3CC3)c2)c(F)c1)c1ncn(-c2ccccc2)c1C(F)(F)F [Example 26, N-(4-((2-cyclopropanecarboxamido)pyridin-4-yl)oxy-3-fluorophenyl)-1-phenyl-5-(trifluoromethyl)-1H-imidazole-4-carboxamide]
12 | 500 to 5000 | 50 to 500 | Nc1nccc(Oc2ccc(NC(=O)c3cnn(C4CCCOC4)c3C(F)(F)F)cc2F)c1Cl (centres unmarked) [Example 8, N-(4-((2-amino-3-chloropyridin-4-yl)oxy)-3-fluorophenyl)-1-(tetrahydro-2H-pyran-3-yl)-5-(trifluoromethyl)-1H-pyrazole-4-carboxamide]
13 | > 5000 | 500 to 5000 | CC(C)(C)n1ncc(C(=O)Nc2ccc(Oc3ncnc(N)c3Cl)c(F)c2)c1C(F)(F)F [Example 58, N-[4-(6-amino-5-chloro-pyrimidin-4-yl)oxy-3-fluorophenyl]-1-tert-butyl-5-(trifluoromethyl)pyrazole-4-carboxamide]
14 | > 5000 | 500 to 5000 | Nc1nccc(Oc2ccc(NC(=O)c3ncc(-c4ccccc4)s3)cc2F)c1Cl [Example 32, N-(4-((2-amino-3-chloropyridin-4-yl)oxy)-3-fluorophenyl)-5-phenylthiazole-2-carboxamide]
15 | > 5000 | 500 to 5000 | CCOC(=O)N(c1c(Oc2ccc(NC(=O)c3cnn(-c4ccccc4)c3CC)cc2F)ccnc1N)C(C)C [Example 35, Ethyl(2-amino-4-(4-(5-ethyl-1-phenyl-1H-pyrazole-4-carboxamido)-2-fluorophenoxy)pyridin-3-yl)(isopropyl)carbamate]
16 | > 5000 | 50 to 500 | CCc1c(C(=O)Nc2ccc(Oc3ncnc(N)c3Cl)c(F)c2)cnn1-c1ccccc1 [Example 47]
17 | > 5000 | 50 to 500 | Nc1cc(Oc2ccc(NC(=O)c3cnn(-c4ccccc4)c3C(F)(F)F)cc2F)ccn1 [Example 44, N-(4-((2-aminopyridin-4-yl)oxy)-3-fluorophenyl)-1-phenyl-5-(trifluoromethyl)-1H-pyrazole-4-carboxamide]
18 | > 5000 | 500 to 5000 | Cc1nc(-c2ccccc2)sc1C(=O)Nc1ccc(Oc2ccnc(N)c2Cl)c(F)c1 [Example 31, N-(4-((2-amino-3-chloropyridin-4-yl)oxy)-3-fluorophenyl)-4-methyl-2-phenylthiazole-5-carboxamide]
19 | > 5000 | 50 to 500 | Nc1ncnc(Oc2ccc(NC(=O)c3cnn(-c4ccccc4)c3C(F)(F)F)cc2F)c1Cl [Example 46, N-(4-((6-amino-5-chloro-pyrimidin-4-yl)oxy)-3-fluorophenyl)-1-phenyl-5-(trifluoromethyl)-1H-pyrazole-4-carboxamide]
20 | > 5000 | 50 to 500 | Nc1nccc(Oc2ccc(NC(=O)c3cnc(-c4ccccc4)s3)cc2F)c1Cl [Example 30, N-(4-((2-amino-3-chloropyridin-4-yl)oxy)-3-fluorophenyl)-2-phenylthiazole-5-carboxamide]
21 | > 5000 | 50 to 500 | Cc1c(C(=O)Nc2ccc(Oc3ncnc(N)c3Cl)c(F)c2)nnn1-c1ccccc1F [Example 56, N-[4-(6-amino-5-chloro-pyrimidin-4-yl)oxy-3-fluorophenyl]-1-(2-fluorophenyl)-5-methyl-triazole-4-carboxamide]
22 | > 5000 | 500 to 5000 | Nc1nccc(Oc2ccc(NC(=O)c3cnn(-c4ccccc4)c3)cc2F)c1Cl [Example 7, N-(4-((2-amino-3-chloropyridin-4-yl)oxy)-3-fluorophenyl)-1-phenyl-1H-pyrazole-4-carboxamide]
23 | > 5000 | 500 to 5000 | Nc1ncnc(Oc2ccc(NC(=O)c3cnn(C4CCCOC4)c3C(F)(F)F)cc2F)c1Cl (centres unmarked) [Example 50]
24 | > 5000 | 50 to 500 | Nc1nccc(Oc2ccc(NC(=O)c3ncn(-c4ccccc4)c3C(F)(F)F)cc2F)c1N [Example 27]
25 | > 5000 | > 5000 | Nc1ncnc(Oc2ccc(NC(=O)c3cnn(-c4ccccc4)c3)cc2F)c1Cl [Example 57, N-(4-((6-amino-5-chloro-pyrimidin-4-yl)oxy)-3-fluorophenyl)-1-phenyl-1H-pyrazole-4-carboxamide]
